Laboratory results reported in US10189786B2, “Antibacterial compounds” (Duke University, priority 2013, dated 2019).
Values after ≈ are worked out from the molar mass of the structure shown.

Legend:
Type in all cases: cell-based
[1] = system: N. gonorrhoeae FA19 (a drug-sensitive strain); test: Disk diffusion assay, N. gonorrhoeae FA19; details: disc 6 mm; for zone of inhibition at 0.2 µg/disc / zone of inhibition at 2 µg/disc / zone of inhibition at 20 µg/disc: Neisseria gonorrhoeae, read-out: diameter of the growth inhibition, FA19
Method: (§1) An assay was performed on two strains of Acinetobacter Baumannii: antibiotic susceptible strain (Sus. A.b. Isolate), and multidrug-resistant strains (MDR A.b. Isolate). […] Activity is measured as the diameter (in mm) of the growth inhibition.

[2] = system: N. gonorrhoeae 35/02 (drug-resistant strain); test: Disk diffusion assay, N. gonorrhoeae 35/02; details: disc 6 mm; for zone of inhibition at 0.2 µg/disc / zone of inhibition at 2 µg/disc / zone of inhibition at 20 µg/disc: Neisseria gonorrhoeae, read-out: diameter of the growth inhibition, 35/02
Method: as §1

[3] = system: N. gonorrhoeae F89 (high-level cefixime and ceftriaxone resistance); test: Disk diffusion assay, N. gonorrhoeae F89; details: disc 6 mm; for zone of inhibition at 0.2 µg/disc / zone of inhibition at 2 µg/disc / zone of inhibition at 20 µg/disc: Neisseria gonorrhoeae, read-out: diameter of the growth inhibition, F89
Method: as §1

N. gonorrhoeae H041 = test: Disk diffusion assay, N. gonorrhoeae H041; details: disc 6 mm; for zone of inhibition at 0.2 µg/disc / zone of inhibition at 2 µg/disc / zone of inhibition at 20 µg/disc: Neisseria gonorrhoeae, read-out: diameter of the growth inhibition, H041; for zone of inhibition at 0.2 µg/disc: H041, 0.2 μg per disc; for zone of inhibition at 2 µg/disc: H041, 2.0 μg per disc; for zone of inhibition at 20 µg/disc: H041, 20 μg per disc
Method: as §1

E. coli W3110 = test: microbe, parasite or virus in culture; details: wild-type E. coli W3110, 22 hours at 37° C., MTT; for MIC: Escherichia coli, W3110, 22 h
E. coli W3110PA = test: microbe, parasite or virus in culture; details: Escherichia coli, W3110PA, E. coli with native lpxC replaced by that of P. aeruginosa
P. aeruginosa PAO1 = test: MIC assay, P. aeruginosa PAO1; details: P. aeruginosa PAO1

| SMILES | zone of inhibition at 0.2 µg/disc ([1]; 0.2 μg per disc) | zone of inhibition at 2 µg/disc ([1]; 2.0 μg per disc) | zone of inhibition at 20 µg/disc ([1]; 20 μg per disc) | zone of inhibition at 0.2 µg/disc ([2]; 0.2 μg per disc) | zone of inhibition at 2 µg/disc ([2]; 2.0 μg per disc) | zone of inhibition at 20 µg/disc ([2]; 20 μg per disc) | zone of inhibition at 0.2 µg/disc ([3]; 0.2 μg per disc) | zone of inhibition at 2 µg/disc ([3]; 2.0 μg per disc) | zone of inhibition at 20 µg/disc ([3]; 20 μg per disc) | zone of inhibition at 0.2 µg/disc (N. gonorrhoeae H041) | zone of inhibition at 2 µg/disc (N. gonorrhoeae H041) | zone of inhibition at 20 µg/disc (N. gonorrhoeae H041) | MIC (E. coli W3110) | further results |
| --- | --- | --- | --- | --- | --- | --- | --- | --- | --- | --- | --- | --- | --- | --- |
| C[C@@](O)(C(F)F)[C@H](NC/C=C/c1ccc(-c2ccccc2)cc1)C(=O)NO [Example 147] | 22 mm | 28 mm | 32 mm | 17 mm | 28 mm | 34 mm | 28 mm | 33 mm | 38 mm | 14 mm | 30 mm | 35 mm |  |  |
| COc1cc(-c2ccccc2)ccc1CN[C@H](C(=O)NO)[C@](C)(O)C(F)F [Example 146] | 0 mm | 10 mm | 25 mm | 0 mm | 0 mm | 16 mm | 0 mm | 11 mm | 27 mm | 0 mm | 8 mm | 19 mm |  |  |
| C[C@@](O)(C(F)F)[C@H](NCc1ccc(-c2cccs2)s1)C(=O)NO [Example 8, (2S,3S)-2-(2,2′-bithiophen-5-ylmethylamino)-4,4-difluoro-N,3-dihydroxy-3-methylbutanamide] |  | 19 mm |  |  |  |  |  |  |  |  |  |  | 25 µg/mL (≈ 69 µM) | MIC (E. coli W3110PA): 25 µg/mL (≈ 69 µM) |
| CC(NCCCc1ccc(-c2ccccc2)cc1)(C(=O)NO)C(O)(CF)CF (stereo not drawn) [Example 148] | 12 mm | 19 mm | 27 mm | 0 mm | 17 mm | 24 mm | 13 mm | 19 mm | 27 mm | 9 mm | 15 mm | 24 mm |  |  |
| CC(NCCCc1ccc(-c2ccccc2)cc1)(C(=O)NO)C(C)(O)C(F)F.Cl (single isomer, unassigned) [Example 134] |  |  |  |  |  |  |  |  |  |  |  |  |  | MIC E. coli W3110 (E. coli W3110): 1.25 µg/mL; MIC P. aeruginosa PAO1 (P. aeruginosa PAO1): 2.5 µg/mL; diameter of the growth inhibition, FA19 ([1]; 0.2 μg per disc): 14 mm; diameter of the growth inhibition, FA19 ([1]; 2.0 μg per disc): 24 mm; diameter of the growth inhibition, FA19 ([1]; 20 μg per disc): 30 mm; diameter of the growth inhibition, 35/02 ([2]; 0.2 μg per disc): 12 mm; diameter of the growth inhibition, 35/02 ([2]; 2.0 μg per disc): 23 mm; diameter of the growth inhibition, 35/02 ([2]; 20 μg per disc): 28 mm; diameter of the growth inhibition, F89 ([3]; 0.2 μg per disc): 21 mm; diameter of the growth inhibition, F89 ([3]; 2.0 μg per disc): 28 mm; diameter of the growth inhibition, F89 ([3]; 20 μg per disc): 36 mm; diameter of the growth inhibition, H041 (N. gonorrhoeae H041; 0.2 μg per disc): 14 mm; diameter of the growth inhibition, H041 (N. gonorrhoeae H041; 2.0 μg per disc): 21 mm; diameter of the growth inhibition, H041 (N. gonorrhoeae H041; 20 μg per disc): 26 mm |
| CC(O)(CF)C(C)(NCCCc1ccc(-c2ccccc2)cc1)C(=O)NO.Cl (stereo not drawn) [Example 139] |  |  |  |  |  |  |  |  |  |  |  |  |  | MIC E. coli W3110 (E. coli W3110): 50 µg/mL; diameter of the growth inhibition, FA19 ([1]; 0.2 μg per disc): 11 mm; diameter of the growth inhibition, FA19 ([1]; 2.0 μg per disc): 20 mm; diameter of the growth inhibition, FA19 ([1]; 20 μg per disc): 24 mm; diameter of the growth inhibition, 35/02 ([2]; 0.2 μg per disc): 7 mm; diameter of the growth inhibition, 35/02 ([2]; 2.0 μg per disc): 15 mm; diameter of the growth inhibition, 35/02 ([2]; 20 μg per disc): 22 mm; diameter of the growth inhibition, F89 ([3]; 0.2 μg per disc): 11 mm; diameter of the growth inhibition, F89 ([3]; 2.0 μg per disc): 20 mm; diameter of the growth inhibition, F89 ([3]; 20 μg per disc): 28 mm; diameter of the growth inhibition, H041 (N. gonorrhoeae H041; 0.2 μg per disc): 7 mm; diameter of the growth inhibition, H041 (N. gonorrhoeae H041; 2.0 μg per disc): 14 mm; diameter of the growth inhibition, H041 (N. gonorrhoeae H041; 20 μg per disc): 21 mm |
| COc1ccc(-c2ccc(CCCN[C@H](C(=O)NO)[C@](C)(O)C(F)F)cc2)cc1 [Example 137] |  |  |  |  |  |  |  |  |  |  |  |  | 12 µg/mL (≈ 29.4 µM) |  |
| C[C@@](O)(C(F)F)[C@H](NCc1ccc(-c2ccccc2)cc1O)C(=O)NO [Example 141] | 12 mm | 21 mm | 28 mm | 7 mm | 16 mm | 25 mm | 10 mm | 22 mm | 30 mm | 0 mm | 15 mm | 22 mm | 50 µg/mL (≈ 136 µM) |  |
| C[C@@](O)(C(F)F)[C@H](NCCCc1ccc(-c2ccc(CN3CCOCC3)cc2)cc1)C(=O)NO [Example 138] |  |  |  |  |  |  |  |  |  |  |  |  | 3 µg/mL (≈ 6.28 µM) |  |
